Patent publication US20060094003A1, “Acetylcholine-dependent current as a novel ionic target for atrial fibrillation” (priority 2004, published 2006)
Read-outs that look alike come from different tables or passages of the source.

What was measured:
[1] = tested on: instantaneous inward-rectifier current; assay: Whole-cell patch-clamp of instantaneous inward-rectifier current in canine cardiomyocytes; type: cell-based; settings: at −120 mV, extracellular ion
Experimental: (§1) Adult mongrel dogs of either sex (weighing about 20-35 kg) were anaesthetized with pentobarbital (30 mg kg^−1 I.V.) and artificially ventilated with room air. Hearts and adjacent lung tissue were relatively quickly excised through a left lateral thoracotomy and immersed in oxygenated Tyrode solution (composition detailed hereinbelow) at room temperature. […] A left atrial (LA) preparation with the PVs intact was perfused via the left circumflex coronary artery, and subjected to either standard fine-tipped microelectrode recording of action potentials (APs) or cardiomyocyte isolation with collagenase-containing solutions, as previously described (Ehrlich et al. 2003). Six dogs were subjected to atrial tachycardia-induced remodeling induced by 1 week of atrial pacing at about 400 beats min^−1 after ablation of the AV node, as described in Li et al. 1999. Animal care and handling procedures followed the guidelines of the Canadian Council on Animal Care.
To isolate LA and PV cardiomyocytes, the proximal circumflex artery was cannulated and the distal ends of PV myocardial sleeves (approximately 1-1.5 cm from the PV-LA junction) were marked with silk thread prior to subsequent enzyme perfusion with collagenase (100 U ml^−1, Worthington, type II), in order to facilitate localization of PV sleeves after enzymatic digestion. […] All comparisons were based on PV and LA cardiomyocytes isolated from each dog on each experimental day. After isolation, cells were stored at 4° C. and studied on the same day. […]
Currents were recorded with the whole-cell patch-clamp technique at 36±0.5° C., as described in Yue et al. 1996. […] Capacitance was assessed using 5 mV, 10 ms hyperpolarizing steps from a holding potential (HP) of −60 mV. […]
Currents were recorded with hyperpolarizing and depolarizing pulses (generally 4 s duration) from a HP of −40 mV to selected test potentials (TPs). […] For the determination of reversal potentials, tail currents were recorded after 1.6 s pulses to −120 mV followed by 3.2 s depolarizations to TPs between −110 and +20. […]

IKH = type: cell-based, canine; settings: for IC50: extracellular ion, read-out: IC50 for time-dependent IKH; for effect on IKH (in words): substance alone; for increase of IKH tail currents: following a pulse to −120 mV; for IKH tail current: following hyperpolarization to −120 mV; for IKH mean current density: at −100 mV; for IKH activation by carbachol after pertussis toxin pretreatment (in words): 1.5 mg l−1 PTX, 37° C., at least 9 h
Experimental: as §1
To isolate LA and PV cardiomyocytes, the proximal circumflex artery was cannulated and the distal ends of PV myocardial sleeves (approximately 1-1.5 cm from the PV-LA junction) were marked with silk thread prior to subsequent enzyme perfusion with collagenase (100 U ml^−1, Worthington, type II), in order to facilitate localization of PV sleeves after enzymatic digestion. […] All comparisons were based on PV and LA cardiomyocytes isolated from each dog on each experimental day. After isolation, cells were stored at 4° C. and studied on the same day. For standard microelectrode experiments, intact tissue preparations including the LA and adjacent PVs were mounted in a chamber and perfused via the circumflex artery with oxygenated Krebs solution at 36±0.5° C. (see for example Kneller et al. 2002).
(§2) Currents were recorded with the whole-cell patch-clamp technique at 36±0.5° C., as described in Yue et al. 1996. All junction potentials were zeroed prior to formation of gigaohm seals. […] Capacitance was assessed using 5 mV, 10 ms hyperpolarizing steps from a holding potential (HP) of −60 mV. […] Original recordings are shown in terms of current amplitude, but mean data are presented as current density (pA pF−1) to control for variability in cell size.
(§3) Currents were recorded with hyperpolarizing and depolarizing pulses (generally 4 s duration) from a HP of −40 mV to selected test potentials (TPs). Recordings were repeated 3 times, and mean values obtained. For the determination of reversal potentials, tail currents were recorded after 1.6 s pulses to −120 mV followed by 3.2 s depolarizations to TPs between −110 and +20. All voltage protocols were delivered at 0.1 Hz.
(§4) Tyrode solution contained (mM): NaCl 136, KCl 5.4, MgCl2 1, CaCl2 1, NaH2PO4 0.33, Hepes 5 and dextrose 10 (pH 7.35 with NaOH). The cell-storage solution contained (mM): KCl 20, KH2PO4 10, dextrose 10, mannitol 40, L-glutamic acid 70, β-OH-butyric acid 10, taurine 20, EGTA 10 and 0.1% bovine serum albumin (pH 7.3, KOH). Nifedipine (5 μM) was used to suppress L-type Ca^2+ current (ICa) in all experiments. 4-Aminopyridine (4-AP, 2 mM) was added to suppress transient outward current (Ito). […] Na+ current (INa) contamination was avoided by using a HP of −40 mV for recording of hyperpolarization-induced currents and by substitution of equimolar Tris-HCl for external NaCl for tail-current recordings.

holding current = assay: Holding current in whole-cell patch-clamp of cardiomyocytes; type: cell-based, canine
Experimental: as §2, §3
as §4, with “recordings. When different external K^+ concentrations were applied, the osmolarity was kept constant by proportionate reduction of NaCl content in the solution. The standard internal solution contained (mM): potassium aspartate 110, KCl 20, MgCl2 1, MgATP 5, GTP (lithium salt) 0.1, Hepes 10, sodium phosphocreatine 5 and EGTA 5.0 (pH 7.3 with KOH). In experiments with K+-free internal solution, potassium aspartate was replaced by equimolar caesium aspartate and KCl by CsCl and pH was set to 7.3 with CsOH. For standard-microelectrode experiments, a solution containing (mM): NaCl 120, KCl 4, KH2PO4 1.2, MgSO4 1.2, NaHCO3 25, CaCl2 1.25 and dextrose 5 (95% O2-5% CO2, pH 7.4) was used to perfuse the tissue.” for “recordings.”
Stock solutions of BaCl2 (1 M) and CsCl (1 M) were produced initially and used throughout the experiments. Stock solution of isoproterenol was prepared under protection from light on the day of experiments and freshly prepared ascorbic acid (100 μM) was added in order to prevent isoproterenol oxidization. Carbachol (1 μM) was dissolved in Tyrode solution, tertiapin-Q in 0.1% acetic acid. GTPS (0.1 mM) was used in place of GTP in internal solutions for some experiments. For experiments involving pertussis toxin (PTX, stock solution dissolved in distilled H2O) cells were incubated at 37° C. in 1.5 mg I-1 PTX for at least 9 h prior to experiments. Parallel controls were performed with cells from the same isolates incubated in the same fashion and the same solution, but without PTX. […] Unless otherwise specified, drugs were obtained from Sigma.

In the case of `[Ba+2].[Cl-].[Cl-]` [Ba^2+, BaCl2], the IC50 [1] is reported as 76 ± 17.9 µM, the “inhibition of IKH (in words)” value (IKH; 1 μM, most cells) is reported as “inhibited IKH appreciably” and the “inhibition of IKH (in words)” value (IKH; 10 μM) is reported as “full inhibition”. It also gave an IC50 (IKH; at −120 mV) of 2 ± 0.3 µM.
For `[Cl-].[Cs+]` [Cs^+, CsCl], the IC50 [1] was 139 ± 34.2 µM and the IC50 (IKH; at −120 mV) was 184 ± 18.2 µM.
`Nc1nc2c(ncn2[C@@H]2O[C@H](COP(=O)(O)OP(=O)(O)OP(O)(O)=S)[C@@H](O)[C@H]2O)c(=O)[nH]1` [GTPS] was tested, and the “further IKH response to carbachol with GTPS in the pipette (in words)” value (IKH; GTPS 0.1 mM in place of GTP) was “fully prevented”, the IKH current density (IKH; at −120 mV, GTPS in pipette, no cholinergic stimulation (regular GTP −3.8±0.6)) was −8.2±0.8 pA pF^−1 and the “effect on IKH (in words)” value (IKH) was “increased”.
`C[N+](C)(C)CCOC(N)=O` [carbachol] was tested, and the “average increase of IKH” value (IKH; 1 μM carbachol, voltages between −120 and −90 mV, PV cells) was 188±54%, the IKH current density (IKH; at −120 mV, 1 μM carbachol, GTP-containing pipettes (before −6.2±1.0)) was −10.0±1.2 pA pF^−1 and the IKH current density (IKH; at −120 mV, 1 μM carbachol, GTP-free pipettes (before −8.3±0.7)) was −8.3±1.1 pA pF^−1. The IKH current density (IKH; at −120 mV, 1 μM carbachol, LA cells (baseline −1.9±0.4)) was −4.9±1.1 pA pF^−1, the IKH current density (IKH; at −120 mV, 1 μM carbachol, PV cells (baseline −2.6±0.5)) was −5.0±0.6 pA pF^−1 and the IKH density (IKH; at −120 mV, carbachol, cells incubated without PTX at 37° C. >9 h (before −6.2±1.8)) was −11.5±1.8 pA pF^−1. For the same molecule, the IKH density (IKH; at −120 mV, carbachol, cells preincubated with PTX) was −5.5±1.2 pA pF−1, the “increase of IKH tail currents” value (IKH; carbachol, PTX-treated cells) was 127±37% and the “increase of IKH tail currents” value (IKH; carbachol, cells incubated without PTX) was 538±170%. For the same molecule, the IKH tail current (IKH; after carbachol, PTX-free conditions (before 2.1±0.7)) was 8.4±1.6 pA pF^−1, the IKH tail current (IKH; after carbachol, PTX-preincubated cells) was 3.4±0.9 pA pF^−1 and the “effect on IKH (in words)” value (IKH) was “increased”.
`CC(C)NCC(O)c1ccc(O)c(O)c1` (stereo not shown) [isoproterenol] was tested, and the “increase of holding current” value (holding current; 10 nM isoproterenol) was 59±14%, the holding current (holding current; 10 nM isoproterenol (control 44±11)) was 65±14 pA pF−1 and the “increase of holding current” value (holding current; 100 nM isoproterenol) was 89±33%. For the same molecule, the holding current (holding current; 100 nM isoproterenol (control 44±11)) was 70±13 pA pF−1, the “increase of holding current” value (holding current; 1000 nM isoproterenol) was 144±37% and the holding current (holding current; 1000 nM isoproterenol (control 44±11)) was 87±14 pA pF−1. For the same molecule, the “time to steady-state effect on IKH” value (IKH; 1 μM isoproterenol, PV cell) was at most 2 min, the “IKH mean current density” value (IKH; 10 nM isoproterenol (control −0.9±0.1)) was −1.2±0.1 pA pF^−1 and the “IKH mean current density” value (IKH; 100 nM isoproterenol (control −0.9±0.1)) was −1.4±0.2 pA pF^−1. For the same molecule, the “IKH mean current density” value (IKH; 1000 nM isoproterenol (control −0.9±0.1)) was −1.5±0.1 pA pF^−1, the mean end-pulse current (IKH; at −120 mV, 1 μM isoproterenol in the presence of 200 nM tertiapin-Q) was 0.20±0.07 pA pF^−1 and the “effect on IKH (in words)” value (IKH) was “increased”.
In the case of pertussis toxin, the “IKH activation by carbachol after pertussis toxin pretreatment (in words)” value (IKH; 1 μM carbachol) is reported as “prevented”, the “IKH activation by carbachol after pertussis toxin pretreatment (in words)” value (IKH; 1 μM carbachol, listed as PTX) is reported as “attenuated” and the IKH density (IKH; at −120 mV, cells preincubated with PTX, before carbachol) is reported as −6.4±0.8 pA pF^−1. It also gave an IKH tail current (IKH; PTX-preincubated cells, before carbachol) of 1.8±0.6 pA pF^−1.
